# PubChem BioAssay (NCI)
#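 Following 48 hours of exposure in 96-well plates, responses at five concentrations were used to interpolate endpoints linearly. GI50 is the concentration that inhibits growth by half. TGI denotes the concentration required for complete inhibition of growth.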
# Assays:
# Assay in all cases: inhibition of tumour cell growth, NCI panel, 48 h
# UACC-62 melanoma = tested on: UACC-62 melanoma
# SNB-75 CNS = tested on: SNB-75 CNS
# OVCAR-8 ovarian = tested on: OVCAR-8 ovarian
# 786-0 renal = tested on: 786-0 renal
# NCI-H460 lung = tested on: NCI-H460 lung
# A549 NSCLC = tested on: A549 NSCLC
# HCT-116 colon = tested on: HCT-116 colon
# OVCAR-3 ovarian = tested on: OVCAR-3 ovarian
# RXF 393 renal = tested on: RXF 393 renal
# SN12C renal = tested on: SN12C renal
Compound,TGI (UACC-62 melanoma),TGI (SNB-75 CNS),TGI (OVCAR-8 ovarian),TGI (786-0 renal),TGI (NCI-H460 lung),TGI (A549 NSCLC),TGI (HCT-116 colon),TGI (OVCAR-3 ovarian),TGI (RXF 393 renal),TGI (SN12C renal),GI50 (UACC-62 melanoma),GI50 (SNB-75 CNS),GI50 (OVCAR-8 ovarian),GI50 (786-0 renal),GI50 (NCI-H460 lung),GI50 (A549 NSCLC),GI50 (HCT-116 colon),GI50 (OVCAR-3 ovarian),GI50 (RXF 393 renal),GI50 (SN12C renal)
CC(C)(C)NNC(=O)/C(=C/c1ccc(Oc2ccc(Cl)c(Cl)c2)cc1)NC(=O)c1ccccc1,> 100 µM,> 100 µM,> 100 µM,> 100 µM,> 100 µM,> 100 µM,> 100 µM,> 100 µM,> 100 µM,> 100 µM,,,,,,,,,,
Nc1c(C(=O)Nc2ccccc2)sc2nc3c(cc12)CCCCCC3,12.9 µM,0.898 µM,16.7 µM,3.93 µM,3.91 µM,20.1 µM,4.85 µM,1.07 µM,2.18 µM,60.2 µM,0.428 µM,241 nM,0.478 µM,0.551 µM,0.352 µM,0.467 µM,0.328 µM,319 nM,432 nM,1.57 µM
CCC1=C(C)/C(=C/c2[nH]c(C)c(C(=O)CCCCC(=O)OC)c2C)N=C1c1ccc[nH]1,38.9 µM,27 µM,42.6 µM,32 µM,> 100 µM,> 53.4 µM,> 50.1 µM,18.5 µM,38.6 µM,> 100 µM,8.7 µM,12200 nM,7.46 µM,15.1 µM,37.6 µM,20.4 µM,7.37 µM,3640 nM,11900 nM,22.2 µM
CC(=O)Nc1ccc(/C=C(\NC(=O)c2ccccc2)c2nc3ccc4c(c3[nH]2)C(=O)c2ccccc2C4=O)cc1,> 100 µM,61.5 µM,> 100 µM,> 100 µM,,96.3 µM,> 100 µM,> 100 µM,49.1 µM,> 100 µM,,,,,,,,,,
S=CN1CCCCC1,> 100 µM,> 100 µM,> 100 µM,> 100 µM,> 100 µM,> 100 µM,> 100 µM,> 100 µM,,> 100 µM,,,,,,,,,,
COC(=O)c1c[nH]cc1CCc1c[nH]cc1C(=O)OC,,,> 100 µM,> 100 µM,> 100 µM,> 100 µM,> 100 µM,> 100 µM,> 100 µM,> 100 µM,,,,,,,,,,
Cc1cc2c(c3c1c1ccccc1n3C)C(=O)C=CC2=O,51.1 µM,> 100 µM,56.4 µM,17.3 µM,> 100 µM,> 100 µM,43.8 µM,22.9 µM,30.5 µM,> 82.7 µM,,,,,,,,,,
COc1ccc(OCC(=O)O)c2c1CCC(C(C)C)C2=O (stereo unspecified),> 100 µM,,> 100 µM,> 100 µM,> 100 µM,> 100 µM,> 100 µM,> 100 µM,,,,,,,,,,,,
C/C(CN1C(=O)c2ccccc2C1=O)=N\NS(=O)(=O)c1cccc([N+](=O)[O-])c1,> 100 µM,> 100 µM,> 100 µM,> 100 µM,> 100 µM,> 100 µM,> 100 µM,> 100 µM,> 100 µM,> 100 µM,,,,,,,,,,
CS(=O)(=O)c1ccc(Oc2cc(F)cc(C#N)c2)c2c1[C@H](O)[C@H](F)[C@@H]2F,> 100 µM,> 100 µM,> 100 µM,> 100 µM,> 100 µM,> 100 µM,> 100 µM,> 100 µM,> 100 µM,> 100 µM,> 100 µM,> 100000 nM,> 100 µM,> 100 µM,> 100 µM,> 100 µM,> 100 µM,> 100000 nM,> 100000 nM,> 100 µM
Cc1cc2c(cc1C)NC(=O)C(NC(=O)/C=C/c1ccccc1)C=N2 (stereo unspecified),> 100 µM,> 100 µM,> 100 µM,> 100 µM,> 100 µM,> 100 µM,50.8 µM,55.2 µM,59.7 µM,> 100 µM,,,,,,,,,,
Cn1c(C(N)=O)cc2c1-c1nc(Nc3ccccc3)ncc1CCC2,17.7 µM,8.35 µM,69.3 µM,34.5 µM,> 100 µM,22 µM,41.7 µM,57.1 µM,5.34 µM,> 100 µM,3.92 µM,1610 nM,7.06 µM,4.55 µM,4.2 µM,3.67 µM,3.52 µM,10100 nM,1440 nM,4.18 µM
Cc1ccc(NC(=O)c2[nH]c(=S)nc(N)c2-c2ccccc2C)cc1C,> 100 µM,> 100 µM,> 100 µM,> 100 µM,> 100 µM,> 100 µM,> 100 µM,> 100 µM,> 100 µM,> 100 µM,,,,,,,,,,
O=[N+]([O-])c1cnc(Sc2ccncn2)c([N+](=O)[O-])c1,22.3 µM,27.7 µM,25 µM,25 µM,49.4 µM,> 100 µM,3.59 µM,3.17 µM,4.17 µM,29.9 µM,10.5 µM,14400 nM,11.7 µM,12.2 µM,23 µM,32.6 µM,1.84 µM,1760 nM,1970 nM,16 µM
Cc1ccc(C)c(NC(=O)C(=O)C2C(=O)C3=C(CC2(C)C)Nc2ccccc2S3)c1 (stereo unspecified),> 100 µM,> 100 µM,> 100 µM,> 100 µM,> 100 µM,> 100 µM,> 100 µM,> 100 µM,> 100 µM,> 100 µM,,,,,,,,,,
O=C(O)c1ccc(S(=O)(=O)c2ccccc2)c([N+](=O)[O-])c1,> 100 µM,> 100 µM,,> 100 µM,> 100 µM,> 100 µM,> 100 µM,> 100 µM,> 100 µM,> 100 µM,,,,,,,,,,
CCCCCCCCCCCCN1C(C)=CS/C1=C\C=C\c1scc(C)[n+]1CCCCCCCCCCCC,3.41 µM,4.96 µM,,7.37 µM,3.51 µM,,,3.69 µM,5.29 µM,4.2 µM,1.1 µM,1200 nM,,2.17 µM,1.43 µM,,,1240 nM,1420 nM,1.65 µM
